According to the NIST ThermoML archive (doi:10.1016/j.jct.2012.12.006):
“And” between values parts separate entries of the source, which are not always exact repeats. Equal entries are not always repeated. ± gives the expanded uncertainty stated by the source.

What was measured:
[1] = Molar enthalpy of transition or fusion; details: DSC
[2] = for vapor or sublimation pressure: Calculated from knudsen effusion weight loss; for Triple point temperature: DTA

NC(=O)c1cccc(N)c1 [3-aminobenzamide]
Details | Molar enthalpy of transition or fusion, [1] [kcal/mol] | Triple point temperature, [2] [K]
Crystal 1 | 4.85 ± 0.12 | 387.5 ± 0.4
Crystal 2 | 0.789 ± 0.0478 | 352.4 ± 0.4

[2], Crystal
Details | vapor or sublimation pressure
358.14 K | 3.7e-05 ± 2e-05 kPa and 3.8e-05 ± 2e-05 kPa
360.19 K | 4.8e-05 ± 2e-05 kPa and 4.7e-05 ± 2e-05 kPa
362.14 K | 5.9e-05 ± 2e-05 kPa and 5.8e-05 ± 2e-05 kPa and 6e-05 ± 2e-05 kPa
364.14 K | 7.5e-05 ± 2e-05 kPa
366.17 K | 9.4e-05 ± 2e-05 kPa
368.15 K | 0.000116 ± 2e-05 kPa and 0.000114 ± 2e-05 kPa and 0.000117 ± 2e-05 kPa
370.15 K | 0.000144 ± 2.1e-05 kPa and 0.000146 ± 2.1e-05 kPa and 0.000143 ± 2.1e-05 kPa
372.19 K | 0.000179 ± 2.1e-05 kPa and 0.000177 ± 2.1e-05 kPa and 0.000176 ± 2.1e-05 kPa
374.13 K | 0.000218 ± 2.1e-05 kPa and 0.000216 ± 2.1e-05 kPa and 0.000222 ± 2.2e-05 kPa
376.15 K | 0.000276 ± 2.2e-05 kPa and 0.000275 ± 2.2e-05 kPa and 0.000274 ± 2.2e-05 kPa
378.18 K | 0.000342 ± 2.3e-05 kPa and 0.000338 ± 2.3e-05 kPa
380.14 K | 0.00042 ± 2.5e-05 kPa and 0.000406 ± 2.5e-05 kPa and 0.000405 ± 2.5e-05 kPa

NC(=O)c1ccc(N)cc1 [4-aminobenzamide]
Crystal
Details | Molar enthalpy of transition or fusion [kcal/mol] | Triple point temperature [K]
[1] | 7.17 ± 0.167 | –
[2] | – | 457.6 ± 0.4

[2], Crystal
Details | vapor or sublimation pressure
389.14 K | 0.000125 ± 2e-05 kPa and 0.000124 ± 2e-05 kPa
391.15 K | 0.000154 ± 2.1e-05 kPa and 0.000156 ± 2.1e-05 kPa and 0.000152 ± 2.1e-05 kPa
393.14 K | 0.000185 ± 2.1e-05 kPa and 0.000182 ± 2.1e-05 kPa and 0.000187 ± 2.1e-05 kPa
395.15 K | 0.000228 ± 2.2e-05 kPa and 0.000226 ± 2.2e-05 kPa
397.15 K | 0.000271 ± 2.2e-05 kPa and 0.000279 ± 2.2e-05 kPa
399.14 K | 0.00033 ± 2.3e-05 kPa and 0.000332 ± 2.3e-05 kPa and 0.000335 ± 2.3e-05 kPa
401.16 K | 0.000407 ± 2.5e-05 kPa and 0.000411 ± 2.5e-05 kPa
403.15 K | 0.000497 ± 2.7e-05 kPa and 0.000495 ± 2.7e-05 kPa and 0.000498 ± 2.7e-05 kPa
405.14 K | 0.000597 ± 2.9e-05 kPa and 0.000591 ± 2.9e-05 kPa and 0.000602 ± 2.9e-05 kPa
407.19 K | 0.000728 ± 3.3e-05 kPa and 0.000721 ± 3.2e-05 kPa
409.2 K | 0.000873 ± 3.7e-05 kPa and 0.000868 ± 3.7e-05 kPa and 0.000883 ± 3.7e-05 kPa
411.15 K | 0.001054 ± 8.3e-05 kPa and 0.001042 ± 8.1e-05 kPa and 0.001008 ± 7.8e-05 kPa

NC(=O)c1ccccc1N [anthranilamide]
Crystal
Details | Molar enthalpy of transition or fusion [kcal/mol] | Triple point temperature [K]
[1] | 5 ± 0.12 | –
[2] | – | 384.4 ± 0.4

[2], Crystal
Details | vapor or sublimation pressure
335.11 K | 9.5e-05 ± 2e-05 kPa and 9.6e-05 ± 2e-05 kPa
337.17 K | 0.000121 ± 2e-05 kPa and 0.00012 ± 2e-05 kPa
339.17 K | 0.00015 ± 2.1e-05 kPa and 0.000149 ± 2.1e-05 kPa and 0.000152 ± 2.1e-05 kPa
341.1 K | 0.00019 ± 2.1e-05 kPa and 0.000188 ± 2.1e-05 kPa and 0.000187 ± 2.1e-05 kPa
343.16 K | 0.000237 ± 2.2e-05 kPa and 0.000232 ± 2.2e-05 kPa and 0.000236 ± 2.2e-05 kPa
345.16 K | 0.00029 ± 2.2e-05 kPa and 0.000285 ± 2.2e-05 kPa and 0.000298 ± 2.3e-05 kPa
347.11 K | 0.000359 ± 2.4e-05 kPa and 0.000357 ± 2.4e-05 kPa
349.16 K | 0.000445 ± 2.5e-05 kPa and 0.000435 ± 2.5e-05 kPa and 0.000441 ± 2.5e-05 kPa
351.17 K | 0.000539 ± 2.8e-05 kPa and 0.00053 ± 2.7e-05 kPa and 0.000545 ± 2.8e-05 kPa
353.12 K | 0.000667 ± 3.1e-05 kPa and 0.000663 ± 3.1e-05 kPa
355.16 K | 0.00082 ± 3.5e-05 kPa and 0.000826 ± 3.5e-05 kPa and 0.000806 ± 3.5e-05 kPa
357.16 K | 0.000993 ± 4e-05 kPa and 0.000994 ± 4e-05 kPa
